Source: patent publication US7351688B2, “Compositions and methods for less immunogenic protein formulations” (The Research Foundation of State University of New York, priority 2003, dated 2008)

Tested on: Hemophilia A mice
Experiment: Immunogenicity of simple complexes, subcutaneous: total antibody titers (ELISA) and inhibitory titers (Bethesda Units)
Conditions: mouse, in vivo, sc
Protocol: To illustrate this example, simple complexes were prepared with phosphoserine, phosphocholine or phaphatidic acid. Immunogenicity was tested by subcutaneous administration of the complexes in Hemophilia A mice.

effect on immunogenicity (total antibody titers and inhibitory titers) versus rFVIII: not
Substance: phosphatidic acid
